Details: for log10 BCF / log10 biotransformation half-life (days): fish

| SMILES | melting point [°C] | boiling point [°C] | other results |
| --- | --- | --- | --- |
| Nc1nc(N)c2[nH]cnc2n1 | 302 |  |  |
| N#C[S-].[NH4+] | 150 |  |  |
| Clc1ccc(Cl)c(-c2cccc(Cl)c2Cl)c1 |  |  | log10 Henry constant (atm·m³/mol): -3.85; log10 Koa: 8.36; log10 BCF: 4.84; log10 biotransformation half-life (days): 2.33 |
| CCC(CC)CCl |  | 126 |  |
| O=C(Oc1ccc2ccccc2c1)c1ccccc1O | 95.5 |  |  |
| OC(c1ccc(Cl)cc1)(c1cncnc1)c1ccccc1Cl (configuration not stated) | 118 |  | log10 Koc (L/kg): 2.78; log10 biotransformation half-life (days): 0.57 |
| Cc1nccc2ccccc12 | 10 | 248 |  |
| CCCCCCCCCCCCCCCCCC(=O)Cl | 23 |  |  |
| c1ccn2cccc2c1 | 75 | 205 |  |
| CCc1ccc2cc(O)c(O)cc2c1 | 149 |  |  |
| CCCCCCCCCCCC[N+](C)(C)CCOc1ccccc1.[Br-] | 112 |  |  |
| O=[N+]([O-])c1ccccc1Sc1ccccc1 | 82 |  |  |
| CCOC(=O)CC(=O)c1ccccc1 |  |  | log10 vapour pressure (mmHg): -3.39 |
| Cc1nn(C)c(Oc2ccccc2)c1C=NOCc1ccc(C(=O)OC(C)(C)C)cc1 | 102 |  |  |
| O=[N+]([O-])c1c(Cl)cc(Cl)cc1Cl | 72 |  | ready biodegradability: not readily biodegradable; log10 BCF: 2.47; log10 biotransformation half-life (days): 0.71 |
| CCCCCCCCCCCCS | -8 | 274 | log10 vapour pressure (mmHg): -2.07 |
| C=C(C)C(=O)OCCCC | -75 | 160 | log10 vapour pressure (mmHg): 0.326; ready biodegradability: readily biodegradable |
| O=[N+]([O-])c1cc[n+]([O-])c2ccccc12 | 154 |  |  |
| OCC(O)CO | 18.2 | 290 | log10 Henry constant (atm·m³/mol): -7.76; log10 vapour pressure (mmHg): -3.77; ready biodegradability: readily biodegradable |
| CC(C)(Sc1cc(C(C)(C)C)c(O)c(C(C)(C)C)c1)Sc1cc(C(C)(C)C)c(O)c(C(C)(C)C)c1 | 125 |  |  |
| FC(F)COC(F)F |  | 55.3 | log10 vapour pressure (mmHg): 2.36 |

| SMILES | melting point [°C] | boiling point [°C] | other results |
| --- | --- | --- | --- |
| O=S(=O)(O)c1cccc2c(S(=O)(=O)O)cccc12 |  |  | ready biodegradability: readily biodegradable |
| NC(=O)Nc1cccc2ccccc12 | 220 |  |  |
| Clc1cc2c(Cl)c(Cl)c(Cl)cc2c(Cl)c1Cl |  |  | log10 Koa: 9.58; log10 vapour pressure (mmHg): -6.46 |
| CCCCBr | -112 | 101 | log10 vapour pressure (mmHg): 1.62 |
| Cn1cnc([N+](=O)[O-])c1Sc1ncnc2nc[nH]c12 | 244 |  |  |
| O=C(O)c1ccc(C(=O)O)s1 | 359 |  |  |
| S=c1sc2nc3ccccc3nc2s1 | 180 |  |  |
| C=CCCCCC(=O)O | -6.5 | 226 |  |
| O=C(c1ccc(O)c(O)c1)c1c(O)cc(O)cc1O | 222 |  |  |
| CC(C)(C)OO | -8 |  | log10 vapour pressure (mmHg): 0.738; ready biodegradability: not readily biodegradable |
| CCC(=O)C1(c2cccc(O)c2)CCN(C)CC1 | 156 |  |  |
| CNc1cccc(C)c1 |  | 206 | ready biodegradability: not readily biodegradable; log10 BCF: 0.86; log10 biotransformation half-life (days): -0.79 |
| O=P1(NCCCl)OCCCN1CCCl (configuration not stated) | 40 |  |  |
| N#C/C=C/C#N | 96.8 | 186 |  |
| CCc1cc2ccccc2c2ccccc12 | 62.5 |  | log10 biotransformation half-life (days): 0.29 |
| CNC(=O)Oc1cc(C)c(SC)c(C)c1 | 120 |  | log10 Henry constant (atm·m³/mol): -8.93; log10 Koc (L/kg): 2.32; log10 vapour pressure (mmHg): -6.57 |
| CNC(=O)Oc1cc(C(C)(C)C)cc(C(C)(C)C)c1 | 103 |  | log10 vapour pressure (mmHg): -5.7 |
| Cc1ccc2nccnc2c1 | 218 | 249 |  |
| CCN1CCCC1CNC(=O)c1cc(S(=O)(=O)CC)ccc1OC (configuration not stated) | 182 |  |  |
| C[Si](C)(C)CO |  | 121 |  |
| Fc1cccc(F)n1 |  | 125 |  |

| SMILES | melting point [°C] | boiling point [°C] | other results |
| --- | --- | --- | --- |
| O=S(=O)(Oc1ccc(Cl)cc1Cl)c1ccccc1 | 45.5 |  |  |
| N=C(N)c1ccc(C=Cc2ccc(C(=N)N)cc2O)cc1 | 235 |  |  |
| CC#CC=CC |  | 88.5 |  |
| Clc1cc(Cl)c2c(oc3ccc(Cl)c(Cl)c32)c1Cl | 210 |  |  |
| CN1C(=O)C(C)(C2=CCCCC2)C(=O)N=C1O (configuration not stated) | 146 |  |  |
| CCc1ccccc1OC |  | 187 |  |
| c1ccc2c(c1)Cc1ccccc1S2 | 128 | 341 |  |
| CC(=O)OCC(=O)c1ccccc1 | 49 | 270 |  |
| Nc1ccc2c(c1)CCC2 | 37.5 | 248 |  |
| CS(=O)(=O)OCCCNCCCOS(C)(=O)=O | 116 |  |  |
| CC12CCC(C1)C(C)(C)C2=O (configuration not stated) | 5.37 |  | log10 vapour pressure (mmHg): -0.0876 |
| O=c1cc(CO)occ1O | 154 |  |  |
| O=C(CCl)N1CCOCC1 | 37 |  |  |
| Cc1nc2ccccc2o1 | 9.5 | 200 |  |
| CC1=CCC(C(C)C)=CC1 | -10 | 183 | log10 Henry constant (atm·m³/mol): -1.59; log10 vapour pressure (mmHg): 0.0362; ready biodegradability: readily biodegradable |
| [C-]#[N+]CCCC |  | 120 |  |
| ClCCOC(c1ccccc1)c1ccccc1 |  |  | ready biodegradability: not readily biodegradable; log10 BCF: 2.51; log10 biotransformation half-life (days): -0.07 |
| COc1ccc2[nH]cc(CCNC(C)=O)c2c1 | 117 |  |  |
| CC(=O)O[C@]1(C(C)=O)CC[C@H]2[C@@H]3C[C@H](C(F)(F)F)C4=CC(=O)CC[C@]4(C)[C@H]3CC[C@@]21C | 206 |  |  |
| CCCC(CC)(CC)CC |  | 166 |  |
| c1ccc(SSc2ccccc2)cc1 | 62 | 310 | log10 vapour pressure (mmHg): -3.66 |
